Each block holds one molecule with its values, some of them ahead of it.
Columns and labels:
[1] = molecular target: T1, MIF (Homo sapiens, UniProt P14174); experiment: MIF dopachrome tautomerase activity assay with Compound 1b as MIF-substrate; assay type: biochemical; settings: test compound used in place of the MIF-substrate
T1 construct: made in house; host or cells: E. coli BL21(DE3), pET11b (inferred from Section 6; the Section 8 text says only 'recombinant')
T1 sequence (P14174 2-115 limits assumed): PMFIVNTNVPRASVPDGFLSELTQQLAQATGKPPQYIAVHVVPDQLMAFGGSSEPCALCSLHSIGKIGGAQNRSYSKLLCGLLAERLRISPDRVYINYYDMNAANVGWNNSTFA
Source text: The general method of performing an assay for MIF dopachrome tautomerase activity, described in more detail below, begins with the oxidation of a percursor of the MIF-substrate (e.g., DOPA-related Compound 1a [L-3-(3,4-dihydroxyphenyl) alanine methyl ester] above) and, if required, the similar oxidation of precursors of the test inhibitors (e.g., the DOPA-related Compounds 2a [L-3-(3,4-dihydroxyphenyl)-2-methyl alanine], 3a [D/L-3-(3,4-dihydroxyphenyl)-2-methyl alanine], 4a [L-3-(3,4-dihydroxyphenyl)-2-methyl alanine methyl ester] and 5a [D/L-3-(3,4-dihydroxyphenyl)-2 methyl alanine methyl ester] above). This oxidation of each precursor compound with sodium periodate generates the corresponding orange-colored dopachrome derivative; specifically, a preferred MIF-substrate (Compound 1B above) and the test inhibitors (Compounds 2b, 3b, 4b, and 5b above). Upon addition of MIF, the MIF-substrate (Compound 1b [L-3,5-dihydro-6-hydroxy-5-oxo-2H-indole-2-carboxylic acid methyl ester]) undergoes tautomerization resulting in a colorless product. In the presence of the test inhibitors (Compounds 2b, 3b, 4b, and 5b), decolorization of MIF-substrate (Compound 1b) was retarded. Test compounds 2b, 3b, 4b, and 5b themselves were unreactive in this tautomerization reaction; that is, they were not tautomerized and correspondingly decolorized by MIF dopachrome tautomerase activity if they were substituted for the MIF-substrate in this assay method.
In a preferred MIF dopachrome tautomerase activity assay procedure, the DOPA-related precursors (Compounds 1a, 2a, 3a, 4a, and 5a above) are prepared as 10 mM stock solutions in Assay Buffer (10 mM sodium phosphate, pH 6.0). About 10 minutes before the tautomerization assay, 1.0 ml of each stock solution was diluted with 8 ml of Assay Buffer, and 1.0 ml of sodium periodate stock solution (20 mM in water) was added to initiate the oxidation of the diluted precursors, thus generating each respective dopachrome derivative (i.e., Compounds 1b, 2b, 3b, 4b, and 5b) at a final concentration of 1 mM. To perform the actual tautomerization assay, 0.5 ml of the 1 mM solution of the MIF-substrate (i.e., Compound 1b) was mixed with 0.5 ml of Assay Buffer (no inhibitor control reaction) or 0.5 ml of the 1 mM dilution of the test inhibitor (e.g., Compounds 2b, 3b, 4b, or 5b), followed by addition of 10 μl of recombinant […] solution from a 20 μg/ml stock.

[2] = molecular target: recombinant human MIF (Homo sapiens, UniProt P14174); experiment: biochemical; settings: read-out: % Inhibition of MIF tautomerase activity
[3] = Tautomerase activity of altered or glycated MIF proteins; assay type: biochemical
Experimental: A 1 mM solution of L-DOPA methyl ester was prepared in Reaction Buffer (10 mM sodium phosphate, pH 6, containing 0.5 mM EDTA). L-DOPA methyl ester was oxidized to colored L-dipachrome methyl ester by adding 10% (v/v) of a 20 mM aqueous solution of potassium periodate, following a 1:2 dilution with Reaction Buffer.
The test compound, reduced glutathione, was added in concentrations of 0.1 mM, 0.5 mM, 1.0 mM, and 2.0 mM to separate cuvettes containing the substrate solution. Approximately 100 ng of purified recombinant human MIF was added to each cuvette. […]
Purified recombinantly-produced human MIF protein was glycated by incubation in aqueous buffer in the presence of 0.5 M glucose, typically for 6 weeks in the dark at 37° C. under a nitrogen atmosphere to ensure complete glycation of susceptible residues (although other spontaneous glycation conditions will serve to glycate the protein without departing from the essence of the invention) and tested for D-dopachrome tautomerase activity by the method of Section 7 or Section 8. […] The AGE-MIF was recovered and analyzed by matrix-assisted laser desorption ionization mass spectroscopy and determined to have a mass consistent with three-fold Amadori product modification of the protein; that is, there was a mass excess of approximately 3×162 (the mass excess of a single Amadori product). […]

[4] = test system: RAW 264.7 macrophages; experiment: MIF-induced secretion of TNFα by mouse macrophages (L929 cell cytotoxicity readout); assay type: cell-based, murine
Experimental: TNFα production was quantitated in MIF-conditioned RAW 264.7 macrophage supernatants by L929 cell cytotoxicity as described previously (Wolpe et al., 1988, J. Exp. Med. 167: 570). RAW 264.7 macrophages were resuspended in RPMI/10% FBS, plated at 1×10^6 cells/ml, incubated for 3 hours at 37° C. in a humidified atmosphere with 5% CO2, and washed twice with RPMI/1% FBS. Cells were incubated for 12-14 hours with various doses of MIF diluted in RPMI/1% FBS. At the end of each experiment, cell culture media were collected, centrifuged (10 min at 800 g), and supplemented with 1 mM PMSF. MIF-induced TNFα activity was measured immediately afterwards.

[5] = test system: RAW 264.7 macrophages; experiment: MIF-induced nitric oxide production in macrophages (Griess reagent); assay type: cell-based, murine; settings: 1 μg/ml, IFN-γ-primed RAW 264.7 macrophages
Experimental: Nitric oxide (NO) production was quantitated in MIF-conditioned RAW 264.7 and thioglycollate-elicited peritoneal exudate macrophage supernatants by measuring nitrite and nitrate content with the Griess reagent. RAW 264.7 macrophages were prepared and conditioned as described above. In some experiments, cells were incubated for 1 h with recombinant murine interferon-γ (IFN-γ) (100 IU/ml) (Boehringer-Mannheim, Indianapolis, Ind.) prior to the addition of MIF. Thioglycollate-elicited peritoneal exudate macrophages were obtained from BALB/c mice that were injected intra-peritoneally 3-4 days previously with 2 ml of sterile thioglycollate broth. Cells were harvested under strict aseptic conditions by lavage of the peritoneal cavity with 5 ml of an ice-chilled 11.6% sucrose solution. After centrifugation (10 min at 800 g), cells were resuspended in RPMI/10% FBS and plated at a density of 2×10^6 cells/ml. After 3 h of incubation, non-adherent cells (i.e. PMNs, lymphocytes) were removed with RPMI/1% FBS and the remaining adherent cells conditioned with MIF as described for RAW 264.7 cells. Trace concentrations of contaminating LPS were neutralized by incubating MIF (1 and 10 μg/ml in cell culture media) with polymyxin B at a concentration of 10 and 100 ng/ml, respectively, for 30 min at room temperature under sterile conditions. […]

Tautomerization by MIF when substituted for the MIF-substrate [1]: unreactive
Molecule: CC1(C(=O)O)CC2=CC(=O)C(O)=CC2=N1 [Compound 2b, L-3,5-dihydro-6-hydroxy-2-methyl-5-oxo-2H-indole-2-carboxylic acid]

Tautomerization by MIF when substituted for the MIF-substrate [1]: unreactive
Molecule: CC1(C(=O)O)CC2=CC(=O)C(O)=CC2=N1 [Compound 3b, D/L-3,5-dihydro-6-hydroxy-2-methyl-5-oxo-2H-indole-2-carboxylic acid]

Tautomerization by MIF when substituted for the MIF-substrate [1]: unreactive
Molecule: COC(=O)C1(C)CC2=CC(=O)C(O)=CC2=N1 [Compound 4b, L-3,5-dihydro-6-hydroxy-2-methyl-5-oxo-2H-indole-2-carboxylic acid methyl ester]

Tautomerization by MIF when substituted for the MIF-substrate [1]: unreactive
Molecule: COC(=O)C1(C)CC2=CC(=O)C(O)=CC2=N1 [Compound 5b, D/L-3,5-dihydro-6-hydroxy-2-methyl-5-oxo-2H-indole-2-carboxylic acid methyl ester]

inhibition at 100 µM [2]: 14%
inhibition at 500 µM [2]: 69%
inhibition at 1000 µM [2]: 95%
inhibition at 2000 µM [2]: 100%
Molecule: N[C@@H](CCC(=O)N[C@@H](CS)C(=O)NCC(=O)O)C(=O)O [Glutathione, glutathione]

B1: rhuMIF: recombinant human MIF expressed in E. coli from pET11b, native amino-terminus (protein, UniProt P14174 2-115, looked up)
Macrophage migration …: T1 sequence (P14174 2-115 limits assumed)
MIF tautomerase activity of expressed protein ([3]; protein expressed in E. coli): highly active
Secretion of TNFα induced by MIF ([4]; MIF 0.1 μg/ml): 2.9 ± 2.4 ng/mL
Secretion of TNFα induced by MIF ([4]; MIF 1 μg/ml): 3.4 ± 2.8 ng/mL
Secretion of TNFα induced by MIF ([4]; MIF 10 μg/ml): 3.9 ± 2.8 ng/mL
NO production activity relative to rmuMIF [5]: approximately 4 fold

B2: AGE-MIF: recombinant human MIF glycated by incubation with 0.5 M glucose; three-fold Amadori product modification (protein, UniProt P14174 2-115, looked up)
Macrophage migration …: T1 sequence (P14174 2-115 limits assumed)
modifications: advanced glycation end-product modified
D-dopachrome tautomerase activity of glycated MIF ([3]; human MIF incubated with 0.5 M glucose, typically 6 weeks at 37° C., method of Section 7 or Section 8): no D-dopachrome tautomerase activity
